Reference: paper PMC9117324 (Scientific Reports, 2022)
Where “and” joins values, the source holds several entries; their conditions need not be identical. Equal values may be shown once.

Key:
[1] = test system: A549 human lung cancer cells; experiment: MTT cell viability assay, A549; type: cell-based
Protocol: (§1) All cancer cells were cultured in RPMI 1640 medium with 10% FBS in a humidified incubator of 95% air and 5% CO2 at 37 °C. […] Then, […] of MTT solution (5 mg/ml) was added to every well and kept at 37 °C for 4 h in the dark. After removing the medium, 200 µl DMSO was added, and the solution was kept on a shaker for approximately 15 min until the formazan solved completely. The absorbance was evaluated at 490 nm with an ELISA reader. The IC50 was computed by GraphPad Prism 7.0 software. […] All of cell lines were treated for three different duration times (24, 48 and 72 h). The Caco-2 cells were very sensitive to Pt(TSC)Cl in comparison with the two others in all three different durations of treatment. We also used cisplatin, a commercially available platinum-based compound, as a reference. […] Cell viability was assessed with MTT and is presented relative to untreated cells (set to 100%).

[2] = test system: MCF-7 human breast cancer cells; experiment: MTT cell viability assay, MCF-7; type: cell-based
Protocol: as §1

[3] = test system: Caco-2 human colon cancer cells; experiment: MTT cell viability assay, Caco-2; type: cell-based; details: for IC50: MTT
Protocol: as §1, with “h).” for “h). The Caco-2 cells were very sensitive to Pt(TSC)Cl in comparison with the two others in all three different durations of treatment. We also used cisplatin, a commercially available platinum-based compound, as a reference.”

[4] = test system: Hek293 human embryonic kidney cells; experiment: MTT cell viability assay, Hek293 (nephrotoxicity); type: cell-based; details: Hek293 normal kidney cells, 24 h
Protocol: All cancer cells were cultured in RPMI 1640 medium with 10% FBS in a humidified incubator of 95% air and 5% CO2 at 37 °C. […] Then, […] of MTT solution (5 mg/ml) was added to every well and kept at 37 °C for 4 h in the dark. After removing the medium, 200 µl DMSO was added, and the solution was kept on a shaker for approximately 15 min until the formazan solved completely. The absorbance was evaluated at 490 nm with an ELISA reader. The IC50 was computed by GraphPad Prism 7.0 software. […] Cell viability was assessed with MTT and is presented relative to untreated cells (set to 100%).

A549 cells [5] = experiment: Cell cycle distribution by PI flow cytometry, A549; type: cell-based, Human; details: A549, IC50 concentration, 48 h
Protocol: (§2) Evaluation of cell cycle progression was performed by flow cytometry of propidium iodide and can identify the fraction of time spent by cells in various stages of the cell cycle. […] Cell cycle distribution was determined by flow cytometry by the protocol described previously. The control condition consisted of cells cultured in the absence of treatment but in the presence of PI. After harvesting the cells with trypsin, they were rinsed and fixed with 70% ethanol and kept for 3 days at 4 °C. Then, the samples were centrifuged, and after removal of supernatants […], the cells were dispersed in 300 µL of PBS. Next, after adding 10 µL of ribonuclease-A (10 mg/mL) and 45 min of incubation, 10 µL propidium iodide (1 mg/mL) was added to each of the samples and vortexed. After 10 min of incubation at room temperature and in the dark, the cells were examined by a FACSCalibur flow cytometer to estimate the cell cycle phases. FlowJo 7.6 software was used to analyze the cell cycle.

MCF-7 cells [6] = experiment: Cell cycle distribution by PI flow cytometry, MCF-7; type: cell-based, Human; details: MCF-7, IC50 concentration, 48 h
Protocol: as §2

Caco-2 cells [7] = experiment: Cell cycle distribution by PI flow cytometry, Caco-2; type: cell-based, Human; details: Caco-2, IC50 concentration, 48 h
Protocol: as §2

A549 cells [8] = experiment: Annexin V-FITC/PI apoptosis flow cytometry, A549; type: cell-based, Human; details: A549, IC50 concentration, 48 h
Protocol: (§3) After washing the cells with cold PBS, they were resuspended in 100 µl binding buffer containing Annexin V-FITC (5 μL) and PI (5 μL) solution. After incubation for 15 min at room temperature, cells were washed and suspended in 100 μL of 1 × binding buffer. Cells were investigated by a FACSCanto II ([…]) flow cytometry system. The percentage of apoptotic cells was calculated by summation of the cells in (annexin V+ , PI−) and (annexin V+ , PI+) and the percentage of necrotic cells achieved from (annexin V−, PI+). An Annexin-V/PI assay was performed via flow cytometry to measure the percentage of cells with early and late apoptotic changes.

MCF-7 cells [9] = experiment: Annexin V-FITC/PI apoptosis flow cytometry, MCF-7; type: cell-based, Human; details: MCF-7, IC50 concentration, 48 h
Protocol: as §3

Caco-2 cells [10] = experiment: Annexin V-FITC/PI apoptosis flow cytometry, Caco-2; type: cell-based, Human; details: Caco-2, IC50 concentration, 48 h
Protocol: as §3

Caco-2 cells [11] = experiment: Western blot of apoptotic proteins; type: cell-based, Human; details: Caco-2, IC50 value, 48 h
Protocol: Assessment of apoptotic protein level alterations by western blot analysis by the protocol described previously. The control included cells without treatment. To provide the cell lysate, cells were collected and treated with the following materials: RIPA buffer [500 µL of Tris–HCl (pH = 8), one tablet of protease inhibitor cocktail, 0.003 g EDTA, 0.08 g NaCl, 0.025 g sodium deoxycholate, 0.01 g SDS and 10 µl of Triton NP40 (1%)] used at 4 °C. After that, the cells were centrifuged at 12,000 rpm for 10 min at 4 °C. To measure total protein, the supernatant of cells was determined by the Bradford assay (Bio–Rad protein assay, Bio–Rad Laboratories, USA) using a spectrophotometer (Bibby Scientific Ltd, Beacon Rd, UK). The portions of target protein received from the sodium dodecyl sulfate–polyacrylamide gel electrophoresis (SDS–PAGE) were carried over the polyvinylidene difluoride (PVDF) membrane and were blocked with TBST buffer containing 5% (w/v) skim milk (0.1% v/v Tween®20-tris buffered saline: TBST). The blocked PVDF membranes that contained the target proteins were incubated with specific primary antibodies: Bax (B-9) mouse monoclonal antibody (Santa Cruz) (1:1000), Bcl-2 sc-492 (Santa Cruz) rabbit monoclonal antibody (1:1000), caspase-7 (C7) (Cell Signaling) rabbit polyclonal antibody (1:1000), Caspase-3 Cell Signaling rabbit monoclonal antibody (1:1000), caspase-9 (Cell Signaling) rabbit polyclonal antibody (1:1000), GAPDH (Santa Cruz) mouse monoclonal antibody (1:1000) and P27 (Elabscience) rabbit polyclonal antibody (1:400) that were diluted with blocking buffer) overnight at 4 °C. The membrane was washed with TBST and incubated with secondary antibodies (m-IgGκ BP-HRP (Santa Cruz) for Bax (B-9), Bcl-2 and GAPDH, and mouse anti-rabbit IG-HRP (Santa Cruz) was used for Caspase-3, 7, 9 and P27, which were diluted using blocking buffer (1:1000).) for 1 h at room temperature. The target protein bands were visualized by an enhanced chemiluminescence detection kit (Thermo Fisher Scientific, Breda, the Netherlands) and Amersham® Imager 600 system (GE Healthcare Life Sciences, Eindhoven, Netherlands). Finally, the western blotting results were normalized to the expression of GAPDH as the loading control. All the protein bands were quantified by ImageJ software (v. 1.52n).

[12] = test system: MCF-7, A549 and Caco-2 cell lines; experiment: Real time PCR of apoptosis pathway genes; type: cell-based, Human; details: IC50 values, 48 h, GAPDH reference gene
Protocol: Then, the cells were rinsed with cold PBS and harvested. Total RNA was isolated from MCF-Z, A549, and Caco-2 cell lines by the TRIzol method (TRIzol™ Reagent (Invitrogen, Catalog number: 15596026)). Briefly, the cells were centrifuged at 500 g at 4 °C, the plates were processed for cell lysate by 750 μl of RiboEx; then 200 μl chloroform was subjoined to the cell lysate and after incubating for 2 min at room temperature, they were centrifuged at 12,000 g for 20 min (4 °C). Following collection of aqueous phases, one volume of isopropyl alcohol was dispensed for precipitation of total RNA at 12,000 g for 20 min (4 °C). The RNA plate was rinsed with 75% ethanol and dissolved in deep water. Complementary DNA (cDNA) synthesis was performed by Revert Aid Reverse Transcriptase (Cat numb: EP0441, Thermo Scientific, Lithuania) according to the manufacturer’s instructions. For evaluation of the apoptosis pathway genes, real time PCR was carried out based on the following PCR program[28]: initial denaturation at 95 °C for 15 min, 45 cycles of denaturation at 95 °C for 15 sec, and annealing/extension at 60 °C for 50 sec. The real time PCR mixture contained 5 μL 2x SYBR Green Master Mix (RealQ Plus 2x Master Mix Green, Ampliqon, Denmark), 2 μL cDNA, 0.5 μL of 5 pmol/μL primer pair mix (Eurofin, Germany), and 3 μL H2O. […]

[Cl][Pt-2]12[S]C(Nc3ccccc3)=N[N+]1=Cc1cccc[n+]12 (stereo not drawn) [Pt(TSC)Cl complex, [Pt(TSC)Cl]]
IC50 ([1]; A549, 24 h): 147 µM | IC50 ([1]; A549, 48 h): 102 µM | IC50 ([1]; A549, 72 h): 69.3 µM | IC50 ([2]; MCF-7, 24 h): 200 µM | IC50 ([2]; MCF-7, 48 h): 193 µM | IC50 ([2]; MCF-7, 72 h): 181 µM | IC50 ([3]; Caco-2, 24 h): 17.2 µM | fold more toxicity than cisplatin ([3]; Caco-2, 48 h): 46 fold | IC50 ([3]; Caco-2, 48 h): 2.3 µM | IC50 ([3]; Caco-2, 72 h): 1.75 µM | IC50 [4]: 63.9 µM | G0/G1, percentage of cells (A549 cells [5]): 47.71% | G2/M, percentage of cells (A549 cells [5]): 15.66% | S, percentage of cells (A549 cells [5]): 13.94% | SubG1, percentage of cells (A549 cells [5]): 22% and 21.78% | G0/G1, percentage of cells (MCF-7 cells [6]): 53.17% | G2/M, percentage of cells (MCF-7 cells [6]): 14.70% | S, percentage of cells (MCF-7 cells [6]): 28% and 27.72% | SubG1, percentage of cells (MCF-7 cells [6]): 4.95% | G0/G1, percentage of cells (Caco-2 cells [7]): 30.34% | G2/M, percentage of cells (Caco-2 cells [7]): 5.08% | S, percentage of cells (Caco-2 cells [7]): 14.91% | SubG1, percentage of cells (Caco-2 cells [7]): ~51% | Early apoptosis (PI-/FITC+) cells (Q3) (A549 cells [8]): 3.74% | Late apoptosis (PI+/FITC+) cells (Q2) (A549 cells [8]): 7.12% | Necrosis (PI+/FITC-) cells (Q1) (A549 cells [8]): 3.9% | Viable (PI-/FITC-) cells (Q4) (A549 cells [8]): 85.2% | percentage of apoptotic cells (early + late) (A549 cells [8]): 10.86% | Early apoptosis (PI-/FITC+) cells (Q3) (MCF-7 cells [9]): 6.47% | Late apoptosis (PI+/FITC+) cells (Q2) (MCF-7 cells [9]): 23.8% | Necrosis (PI+/FITC-) cells (Q1) (MCF-7 cells [9]): 2.38% | Viable (PI-/FITC-) cells (Q4) (MCF-7 cells [9]): 67.3% | Late apoptosis (PI+/FITC+) cells (Q2) (Caco-2 cells [10]): 52.4% | Necrosis (PI+/FITC-) cells (Q1) (Caco-2 cells [10]): 4.79% | Viable (PI-/FITC-) cells (Q4) (Caco-2 cells [10]): 5.58% | Bcl2 protein levels (Caco-2 cells [11]): downregulation | Bax protein level, fold vs control group (Caco-2 cells [11]; normalized to GAPDH): 1.9 fold | caspase 3 protein level, fold vs control group (Caco-2 cells [11]; normalized to GAPDH): 1.97 fold | caspase 7 protein level, fold vs control group (Caco-2 cells [11]; normalized to GAPDH): 1.92 fold | caspase 9 protein level, fold vs control group (Caco-2 cells [11]; normalized to GAPDH): 3.2 fold | p27 protein, fold increase vs control group (Caco-2 cells [11]; normalized to GAPDH): 2.14 fold | expression of apoptotic pathway genes Bax and Caspases 9, 3 and 7 vs control [12]: upregulated

N.N.[Cl][Pt][Cl] [cisplatin, reference compound]
IC50 ([1]; A549, 24 h): 96.8 µM | IC50 ([1]; A549, 48 h): 42.9 µM | IC50 ([1]; A549, 72 h): 13.1 µM | IC50 ([2]; MCF-7, 24 h): 162 µM | IC50 ([2]; MCF-7, 48 h): 142 µM | IC50 ([2]; MCF-7, 72 h): 150 µM | IC50 [4]: 4.15 µM | SubG1, percentage of cells (A549 cells [5]): 0.42% | G0/G1, percentage of cells (A549 cells [5]; listed as Cis): 66.94% | G2/M, percentage of cells (A549 cells [5]; listed as Cis): 16.08% | S, percentage of cells (A549 cells [5]; listed as Cis): 16.13% | G2/M, percentage of cells (MCF-7 cells [6]): 15.88% | S, percentage of cells (MCF-7 cells [6]): 37.2% | G0/G1, percentage of cells (MCF-7 cells [6]; listed as Cis): 37.21% | S, percentage of cells (MCF-7 cells [6]; listed as Cis): 37.43% | SubG1, percentage of cells (MCF-7 cells [6]; listed as Cis): 6.8% | Early apoptosis (PI-/FITC+) cells (Q3) (A549 cells [8]): 7.50% | Late apoptosis (PI+/FITC+) cells (Q2) (A549 cells [8]): 7.83% | Necrosis (PI+/FITC-) cells (Q1) (A549 cells [8]): 1.73% | percentage of apoptotic cells (early + late) (A549 cells [8]): 15.33% | Early apoptosis (PI-/FITC+) cells (Q3) (MCF-7 cells [9]): 8.48% | Late apoptosis (PI+/FITC+) cells (Q2) (MCF-7 cells [9]): 10.4% | Necrosis (PI+/FITC-) cells (Q1) (MCF-7 cells [9]): 3.24% | percentage of apoptotic cells (early + late) (MCF-7 cells [9]): 18.88%
